Converted amounts (≈) assume the structure as drawn.
How the values were obtained:
[1] = system: Mexican bean beetle (Epilachna varivestis); test: Foliar evaluation, Mexican bean beetle (MBB); format: in vivo; conditions: for LC50: Epilachna varivestis, foliar, pinto beans, mortality at 48 hours
Description: (§1) Cypermethrin and sigma-cypermethrin were tested by foliar application at various concentrations in aqueous solutions containing 9.75% acetone and 0.25% octylphenoxypolyethoxyethanol. Insect species utilized included the cabbage looper (Trichoplusia ni), southern armyworm (Spodoptera eridania), Mexican bean beetle (Epilachna varivestis), tobacco budworm (Heliothis virescens), and corn earworm (Heliothis zea).
(§2) For all insects, pinto beans (Phaseolus vulgaris) plants were treated with the test solutions. The test solutions were applied with a sprayer to the upper and lower surfaces of the plant leaves to runoff. The plants were then allowed to dry and were severed at the base of the stem before being placed in cups. Ten second instar individuals of the appropriate insect species, except the tobacco budworm and corn earworm, were placed in each cup and the cup covered. Tests with the tobacco budworm and corn earworm used four replicates with each replicate containing five second instar insects. In all tests, mortality was read 48 hours later. The sigma-cypermethrin used in the foliar evaluations was the product of Example 2.

[2] = system: tobacco budworm (Heliothis virescens); test: Foliar evaluation, tobacco budworm (TBW); format: in vivo; conditions: for LC50: Heliothis virescens, foliar, pinto beans, mortality at 48 hours
Description: as §1, §2

[3] = system: tobacco budworm strain resistant to pyrethroids; test: Foliar evaluation, pyrethroid-resistant tobacco budworm (TBW-R); format: in vivo, Heliothis virescens; conditions: for LC50: Heliothis virescens, foliar, pinto beans, mortality at 48 hours
Description: as §1, §2

[4] = system: corn earworm (Heliothis zea); test: Foliar evaluation, corn earworm (CEW); format: in vivo; conditions: for LC50: Helicoverpa zea, foliar, pinto beans, mortality at 48 hours
Description: as §1, §2

Heliothis sp. = test: Field trials on cotton, control of Heliothis sp.; format: in vivo, Heliothis virescens and Heliothis zea; conditions: for Yield: seed cotton per acre
Excerpt: Plots were a minimum of 0.2 acres, and all applications were by commercial ground equipment with a minimum of 10 gallons total spray solution per acre. The cypermethrin isomer content (weight %) of the several sigma-cypermethrin technical products used in the field trials were as follows:
Analysis of the data was based on a seasonal average of multiple evaluations taken over a four to six week period (3-4 applications) in trials for control of Heliothis sp.

[5] = system: alfalfa weevil (Hypera postica); test: Field trials, control of alfalfa weevil; format: in vivo
Description: Field trials were conducted in Louisiana, North Carolina, Texas, Kentucky, Tennessee, and Illinois to evaluate the control of alfalfa weevil (Hypera postica). Small plot trials were used in a randomized block design with four replications per treatment. Applications were made with CO2 backpack sprayers. Results were obtained at 3, 7, and 14 days after treatment (DAT) and were converted to percent control based on the untreated check.

rats = test: Multigeneration study; format: in vivo
Description: Multigeneration studies were conducted in compliance with EPA guideline 83-4 and provide information on reproductive parameters as well as neonatal morbidity and mortality for multiple generations. Wistar rats were fed diets, throughout the study, containing 0, 50, 150, and 750 ppm of cypermethrin (the top dose level was 1000 ppm for the first 12 weeks, but was lowered to 750 ppm for the remainder of the study owing to toxicity). Similarly, Sprague-Dawley rats were fed diets containing 0, 7.5, 25, 100, 375, and 750 ppm of sigma-cypermethrin. (Again, the rates are lower for sigma-cypermethrin, because it was expected to be more toxic.) The cypermethrin isomer content (weight %) of the sigma-cypermethrin technical product used in this study was total isomers--89.1%, S-isomers--82%, cis/trans ratio--51/49. […] Body weights and food consumption were recorded at regular intervals.
The breeding of parental and subsequent generations in each study was initiated with 30 females. In both studies appropriate dietary concentrations of test material were provided during cohabitation. Exposure of the parental males of each generation continued until a scheduled sacrifice following completion of the cohabitation periods, while exposure of parental females continued through to weaning of pups. Pups were weaned at postnatal day 28 in both studies.

Teratology = format: in vivo, Sprague-Dawley rat; conditions: rat, po; gavage in corn oil, once daily, gestation days 6 through 15; read-out: NOEL
Description: (§3) These tests were conducted in compliance with EPA guideline 83-3 for the purpose of determining the effects of the test materials on pregnancy and in utero development. The test materials were administered via gavage in corn oil once daily to female Sprague-Dawley rats on days 6 through 15 of presumed gestation. There were 25 animals per dose group. Dosages of 0, 17.5, 37.5, and 75 mg/kg for cypermethrin and 0, 5, 12.5, 25, and 35 mg/kg for sigma-cypermethrin were administered. The cypermethrin isomer content (weight %) of the sigma-cypermethrin technical product used in this study was total isomers--89.1%, S-isomers--82%, cis/trans ratio--51/49. The control animals (0 mg/kg) received corn oil during the treatment period. All dosages were adjusted daily on the basis of body weights.
(§4) Daily observations of the rats were made during the dosage and postdosage periods. On gestation day 20 to 21 the rats were sacrificed for examination of their uterine contents, including the number of live and dead fetuses and the number of resorptions. Fetuses were subsequently examined for malformations.

[6] = system: female Sprague-Dawley rats; test: Teratology; format: in vivo, Sprague-Dawley rat; conditions: for embryotoxic or teratogenic effect: at any dose
Description: as §3, §4

[7] = Year 1, 0.06 lb ai/A, seasonal mean of 3 trials (MS, LA)
[8] = Year 2, 0.06 lb ai/A, seasonal mean of 4 trials (MS, LA)
[9] = Year 3, 0.06 lb ai/A, seasonal mean of 6-8 trials (MS, LA, AL, GA)
[10] = Year 1, 0.022 lb ai/A, seasonal mean of 3 trials (MS, LA)
[11] = Year 1, 0.03 lb ai/A, seasonal mean of 3 trials (MS, LA)
[12] = Year 2, 0.026 lb ai/A, seasonal mean of 4 trials (MS, LA)
[13] = Year 3, 0.013 lb ai/A, seasonal mean of 6-8 trials (MS, LA, AL, GA)
[14] = Year 3, 0.026 lb ai/A, seasonal mean of 6-8 trials (MS, LA, AL, GA)
[15] = Year 3, 0.039 lb ai/A, seasonal mean of 6-8 trials (MS, LA, AL, GA)

For `CC1(C)C(C=C(Cl)Cl)C1C(=O)OC(C#N)c1cccc(Oc2ccccc2)c1` (stereo not drawn) [cypermethrin, (cyano)(3-phenoxyphenyl)methyl 3-(2,2-dichloroethenyl)-2,2-dimethylcyclopropanecarboxylate, reference compound], the LC50 [1] was 1.2 µg/mL (≈ 2.88 µM), the LC50 [2] was 7.3 µg/mL (≈ 17.5 µM) and the LC50 [3] was 92 µg/mL (≈ 221 µM). For the same compound, the LC50 [4] was 7.3 µg/mL (≈ 17.5 µM), the “% Hel. Live Larv.” value (Heliothis sp.; [7]) was 9% and the “% Hel. Sq. Dam.” value (Heliothis sp.; [7]) was 9%. The Yield (Heliothis sp.; Year 1, 0.06 lb ai/A, 3 trials (MS, LA)) was 2641 lb SC/A, the “% Hel. Live Larv.” value (Heliothis sp.; [8]) was 2% and the “% Hel. Sq. Dam.” value (Heliothis sp.; [8]) was 3%. For the same compound, the “% Hel. Live Larv.” value (Heliothis sp.; [9]) was 4%, the “% Hel. Sq. Dam.” value (Heliothis sp.; [9]) was 3% and the Yield (Heliothis sp.; Year 3, 0.06 lb ai/A, 6-8 trials) was 2675 lb SC/A. For the same compound, the “% Alfalfa Weevil Control” value ([5]; Year 2, 0.04 lb ai/A, 3 DAT, average of 6 trials) was 94%, the “% Alfalfa Weevil Control” value ([5]; Year 2, 0.04 lb ai/A, 7 DAT, average of 6 trials) was 96% and the “% Alfalfa Weevil Control” value ([5]; Year 2, 0.04 lb ai/A, 14 DAT, average of 6 trials) was 90%. For the same compound, the “toxicity at top dose level” value (rats; 1000 ppm in diet, first 12 weeks, lowered to 750 ppm) was “toxicity”, the NOEL (rats; in diet, multiple generations) was 50 ppm and the NOAEL (Teratology) was 17.5 mg/kg. For the same compound, the “embryotoxic or teratogenic effect” value [6] was “no embryotoxic or teratogenic effect”.
In the case of `CC1(C)C(C=C(Cl)Cl)C1C(=O)O[C@H](C#N)c1cccc(Oc2ccccc2)c1` (mixture of isomers) [sigma-cypermethrin, (S)(cyano)(3-phenoxyphenyl)methyl cis/trans-3-(2,2-dichloroethenyl)-2,2-dimethylcyclopropanecarboxylate], the LC50 [1] is reported as 0.3 µg/mL, the “effectiveness relative to cypermethrin” value ([1]; the only Coleoptera tested, laboratory) is reported as “four times as effective” and the “Relative Potency” value ([1]; vs cypermethrin, MBB) is reported as 4.0. For the same compound, the LC50 [2] was 4.4 µg/mL, the “Relative Potency” value ([2]; vs cypermethrin, TBW) was 1.7 and the LC50 [3] was 43 µg/mL. For the same compound, the “Relative Potency” value ([3]; vs cypermethrin, TBW-R) was 2.1, the LC50 [4] was 3.9 µg/mL and the “Relative Potency” value ([4]; vs cypermethrin, CEW) was 1.9. The “% Hel. Live Larv.” value (Heliothis sp.; [10]) was 10%, the “% Hel. Sq. Dam.” value (Heliothis sp.; [10]) was 9% and the Yield (Heliothis sp.; Year 1, 0.022 lb ai/A, 3 trials (MS, LA)) was 2828 lb SC/A. For the same compound, the “% Hel. Live Larv.” value (Heliothis sp.; [11]) was 8%, the “% Hel. Sq. Dam.” value (Heliothis sp.; [11]) was 9% and the Yield (Heliothis sp.; Year 1, 0.03 lb ai/A, 3 trials (MS, LA)) was 2795 lb SC/A. The “% Hel. Live Larv.” value (Heliothis sp.; [12]) was 3%, the “% Hel. Sq. Dam.” value (Heliothis sp.; [12]) was 3% and the “% Hel. Live Larv.” value (Heliothis sp.; [13]) was 6%. The “% Hel. Sq. Dam.” value (Heliothis sp.; [13]) was 3%, the Yield (Heliothis sp.; Year 3, 0.013 lb ai/A, 6-8 trials) was 2818 lb SC/A and the “% Hel. Live Larv.” value (Heliothis sp.; [14]) was 5%. For the same compound, the “% Hel. Sq. Dam.” value (Heliothis sp.; [14]) was 4%, the Yield (Heliothis sp.; Year 3, 0.026 lb ai/A, 6-8 trials) was 2778 lb SC/A and the “% Hel. Live Larv.” value (Heliothis sp.; [15]) was 5%. For the same compound, the “% Hel. Sq. Dam.” value (Heliothis sp.; [15]) was 3%, the Yield (Heliothis sp.; Year 3, 0.039 lb ai/A, 6-8 trials) was 2692 lb SC/A and the “% Alfalfa Weevil Control” value ([5]; Year 1, 0.022 lb ai/A, 3 DAT, average of 4 trials) was 96%. For the same compound, the “% Alfalfa Weevil Control” value ([5]; Year 1, 0.022 lb ai/A, 7 DAT, average of 4 trials) was 94%, the “% Alfalfa Weevil Control” value ([5]; Year 1, 0.022 lb ai/A, 14 DAT, average of 4 trials) was 96% and the “% Alfalfa Weevil Control” value ([5]; Year 2, 0.01 lb ai/A, 3 DAT, average of 6 trials) was 93%. The “% Alfalfa Weevil Control” value ([5]; Year 2, 0.01 lb ai/A, 7 DAT, average of 6 trials) was 93%, the “% Alfalfa Weevil Control” value ([5]; Year 2, 0.01 lb ai/A, 14 DAT, average of 6 trials) was 85% and the “% Alfalfa Weevil Control” value ([5]; Year 2, 0.015 lb ai/A, 3 DAT, average of 6 trials) was 94%. The “% Alfalfa Weevil Control” value ([5]; Year 2, 0.015 lb ai/A, 7 DAT, average of 6 trials) was 97%, the “% Alfalfa Weevil Control” value ([5]; Year 2, 0.015 lb ai/A, 14 DAT, average of 6 trials) was 94% and the “% Alfalfa Weevil Control” value ([5]; Year 2, 0.022 lb ai/A, 3 DAT, average of 6 trials) was 94%. The “% Alfalfa Weevil Control” value ([5]; Year 2, 0.022 lb ai/A, 7 DAT, average of 6 trials) was 96%, the “% Alfalfa Weevil Control” value ([5]; Year 2, 0.022 lb ai/A, 14 DAT, average of 6 trials) was 94% and the “mortality of F1 generation litters” value (rats; 750 ppm in diet, 28-day lactation and first week postweaning) was “excessive mortality”. The “NOEL relative to that of cypermethrin” value (rats; multigeneration) was “twice that of cypermethrin”, the “amount required to show an effect on rats relative to that expected from effect on insects” value (rats; multigeneration) was “four times” and the NOAEL (Teratology) was 12.5 mg/kg. For the same compound, the “embryotoxic or teratogenic effect” value [6] was “no embryotoxic or teratogenic effect” and the “amount required to show an effect on rats relative to that expected from effect on insects” value ([6]; teratology) was 1.4 times.
